Data published in ChEMBL document CHEMBL1139408, “Synthesis and calpain inhibitory activity of peptidomimetic compounds with constrained amino acids at the P2 position” (Bioorg Med Chem Lett, 2008).
Where a SMILES comes first, the peptide text is derived from it. [ ]: non-standard residue; d: D form. The star is where a group is joined. Hydrocinnamoyl = O=C(CCc1ccccc1)*; Nle = CCCC[C@H](N)C(=O)O; Ac5c = NC1(C(=O)O)CCCC1; Deg = CCC(N)(CC)C(=O)O

Tests used:
[1] = target: Cathepsin B (Homo sapiens, UniProt P07858); assay: Inhibition of human liver cathepsin B
[2] = target: T1, Calpain-1 catalytic subunit (Sus scrofa, UniProt P35750); assay: Inhibition of pig erythrocyte mu-calpain
T1 sequence (P35750 whole entry): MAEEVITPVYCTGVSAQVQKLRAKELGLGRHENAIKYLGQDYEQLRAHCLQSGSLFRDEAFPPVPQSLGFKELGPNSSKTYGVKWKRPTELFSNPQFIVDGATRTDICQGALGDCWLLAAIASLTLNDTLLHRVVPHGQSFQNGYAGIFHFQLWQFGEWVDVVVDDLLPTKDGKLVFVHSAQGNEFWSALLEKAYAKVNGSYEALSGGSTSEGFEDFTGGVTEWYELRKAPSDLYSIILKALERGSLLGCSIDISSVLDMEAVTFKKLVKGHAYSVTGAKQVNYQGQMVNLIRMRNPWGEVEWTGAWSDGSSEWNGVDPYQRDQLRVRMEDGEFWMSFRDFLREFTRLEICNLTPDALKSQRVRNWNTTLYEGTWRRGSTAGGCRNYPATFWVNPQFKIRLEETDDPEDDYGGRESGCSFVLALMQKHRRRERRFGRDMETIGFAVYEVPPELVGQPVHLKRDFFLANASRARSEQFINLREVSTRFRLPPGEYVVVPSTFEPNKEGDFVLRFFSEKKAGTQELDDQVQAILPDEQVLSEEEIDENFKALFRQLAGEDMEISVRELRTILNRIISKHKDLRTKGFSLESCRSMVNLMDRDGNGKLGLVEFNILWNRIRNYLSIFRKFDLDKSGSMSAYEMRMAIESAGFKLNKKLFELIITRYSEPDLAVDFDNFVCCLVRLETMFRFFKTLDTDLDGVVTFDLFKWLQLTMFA

[3] = Selectivity ratio of Ki for human liver cathepsin B to Ki for pig erythrocyte mu-calpain

Compound	Ki [1]	Ki [2]	Selectivity ratio [3]
CCCC[C@@H](C=O)NC(=O)[C@H](CC(C)C)NC(=O)[C@H](CC(C)C)NC(C)=O (Ac-Leu-Leu-[Nle]-aldehyde)	150 nM	190 nM	
O=C[C@H](Cc1ccccc1)NC(=O)C1(NC(=O)CCc2ccccc2)CCCC1 (Hydrocinnamoyl-[Ac5c]-Phe-aldehyde)	880 nM	1940 nM	0.45
CCC(CC)(NC(=O)CCc1ccccc1)C(=O)N[C@H](C=O)Cc1ccccc1 (Hydrocinnamoyl-[Deg]-Phe-aldehyde)	2910 nM	80 nM	36.4
